Measurements from patent publication US20150141381A1, “TETRACYCLINE COMPOUNDS HAVING TARGET THERAPEUTIC ACTIVITIES” (Paratek Pharmaceuticals, Inc., priority 2001, published 2015).
Read-outs that look alike come from different tables or passages of the source.

What was measured:
[1] = test system: E. coli mL308 225; assay: In Vitro Anti-Bacterial Activity Assay (MIC), gram negative; type: cell-based; settings: Escherichia coli, ML308225, 18 h, read-out: Antibiotic Activity Gram −
[2] = test system: S. aureus RN450; assay: In Vitro Anti-Bacterial Activity Assay (MIC), gram positive; type: cell-based; settings: Staphylococcus aureus, RN450, 18 h, read-out: Antibiotic Activity Gram +

Structure (SMILES)	MIC ([1]; MIC class, Table 3)	MIC ([2]; MIC class, Table 3)	MIC [1]	MIC [2]
CCc1ccc(O)c2c1C[C@H]1C[C@H]3[C@@H](N(C)C)C(O)=C(C(N)=O)C(=O)[C@@]3(O)C(O)=C1C2=O [DM]	> 4 µg/mL	< 4 µg/mL		
CN(C)c1ccc(O)c2c1C[C@H]1C[C@H]3[C@H](N(C)C)C(O)=C(C(=O)NCNC(=O)CCl)C(=O)[C@@]3(O)C(O)=C1C2=O [DN]	> 4 µg/mL	< 4 µg/mL		
CN(C)c1cc(NC(=O)Oc2ccc(Cl)cc2)c(O)c2c1C[C@H]1C[C@H]3[C@H](N(C)C)C(O)=C(C(N)=O)C(=O)[C@@]3(O)C(O)=C1C2=O [DP]			> 4 µg/mL	> 4 µg/mL
CN(C)c1cc(C#CCc2ccccc2)c(O)c2c1C[C@H]1C[C@H]3[C@H](N(C)C)C(O)=C(C(N)=O)C(=O)[C@@]3(O)C(O)=C1C2=O [DQ]	> 4 µg/mL	< 4 µg/mL		
CC(=O)NCc1cc(N(C)C)c2c(c1O)C(=O)C1=C(O)[C@]3(O)C(=O)C(C(N)=O)=C(O)C(N(C)C)[C@@H]3C[C@@H]1C2 (some centres unmarked) [DR]	> 4 µg/mL	< 4 µg/mL		
CCOP(=O)(OCC)C(Nc1ccccc1)c1ccc(-c2cc(N(C)C)c3c(c2O)C(=O)C2=C(O)[C@]4(O)C(=O)C(C(N)=O)=C(O)C(N(C)C)[C@@H]4C[C@@H]2C3)cc1 (some centres unmarked) [DS]			> 4 µg/mL	< 4 µg/mL
CN(C)c1cc(NC(=O)Oc2ccccc2)c(O)c2c1C[C@H]1C[C@H]3[C@H](N(C)C)C(O)=C(C(N)=O)C(=O)[C@@]3(O)C(O)=C1C2=O [DT]			> 4 µg/mL	> 4 µg/mL
CC(C)COC(=O)Nc1cc(N(C)C)c2c(c1O)C(=O)C1=C(O)[C@]3(O)C(=O)C(C(N)=O)=C(O)[C@@H](N(C)C)[C@@H]3C[C@@H]1C2 [DU]	> 4 µg/mL	< 4 µg/mL		
COc1ccc(OC(=O)Nc2cc(N(C)C)c3c(c2O)C(=O)C2=C(O)[C@]4(O)C(=O)C(C(N)=O)=C(O)[C@H](N(C)C)[C@@H]4C[C@@H]2C3)cc1 [DV]			> 4 µg/mL	> 4 µg/mL
CN(C)CC(=O)Nc1ccc2c(c1O)C(=O)C1=C(O)[C@]3(O)C(=O)C(C(N)=O)=C(O)[C@@H](N(C)C)[C@@H]3C[C@@H]1C2 [DW]	< 4 µg/mL	< 4 µg/mL		
CCCCCc1cc(N(C)C)c2c(c1O)C(=O)C1=C(O)[C@]3(O)C(=O)C(C(N)=O)=C(O)[C@@H](N(C)C)[C@@H]3C[C@@H]1C2 [DX]	> 4 µg/mL	< 4 µg/mL		
CCCC#Cc1cc(N(C)C)c2c(c1O)C(=O)C1=C(O)[C@]3(O)C(=O)C(C(N)=O)=C(O)[C@@H](N(C)C)[C@@H]3C[C@@H]1C2 [DY]	> 4 µg/mL	< 4 µg/mL		
CN(C)c1cc(NC(=O)CNC(C)(C)C)c(O)c2c1C[C@H]1C[C@H]3[C@H](N(C)C)C(O)=C(C(N)=O)C(=O)[C@@]3(O)C(O)=C1C2=O [DZ]	< 4 µg/mL	< 4 µg/mL		
CN(C)[C@@H]1C(O)=C(C(N)=O)C(=O)[C@@]2(O)C(O)=C3C(=O)c4c(O)cccc4[C@@](C)(O)[C@H]3C[C@@H]12 [D]	< 4 µg/mL	< 4 µg/mL		
CCC(=O)c1ccc(O)c2c1C[C@H]1C[C@H]3[C@H](N(C)C)C(O)=C(C(N)=O)C(=O)[C@@]3(O)C(O)=C1C2=O [EA]	< 4 µg/mL	< 4 µg/mL		
CC(=O)c1cc(C(C)=O)c2c(c1O)C(=O)C1=C(O)[C@]3(O)C(=O)C(C(N)=O)=C(O)[C@@H](N(C)C)[C@@H]3C[C@@H]1C2 [EB]	> 4 µg/mL	< 4 µg/mL		
CCN(CC)Cc1ccc(OC)c(-c2ccc(O)c3c2C[C@H]2C[C@H]4C(N(C)C)C(O)=C(C(N)=O)C(=O)[C@@]4(O)C(O)=C2C3=O)c1 (some centres unmarked) [EC]	< 4 µg/mL	< 4 µg/mL		
COc1ccc(CN2CCCC2)cc1-c1ccc(O)c2c1C[C@H]1C[C@H]3C(N(C)C)C(O)=C(C(N)=O)C(=O)[C@@]3(O)C(O)=C1C2=O (some centres unmarked) [ED]	< 4 µg/mL	< 4 µg/mL		
CCCNCc1ccc(OC)c(-c2ccc(O)c3c2C[C@H]2C[C@H]4C(N(C)C)C(O)=C(C(N)=O)C(=O)[C@@]4(O)C(O)=C2C3=O)c1 (some centres unmarked) [EF]	< 4 µg/mL	< 4 µg/mL		
COc1ccc(CNCC(C)C)cc1-c1ccc(O)c2c1C[C@H]1C[C@H]3[C@H](N(C)C)C(O)=C(C(N)=O)C(=O)[C@@]3(O)C(O)=C1C2=O [EG]	< 4 µg/mL	< 4 µg/mL		
CN(C)c1cc(CNCCc2ccccc2)c(O)c2c1C[C@H]1C[C@H]3C(N(C)C)C(O)=C(C(N)=O)C(=O)[C@@]3(O)C(O)=C1C2=O (some centres unmarked) [EH]	< 4 µg/mL	< 4 µg/mL		
CCCCc1ccc(-c2cc(N(C)C)c3c(c2O)C(=O)C2=C(O)[C@]4(O)C(=O)C(C(N)=O)=C(O)[C@@H](N(C)C)[C@@H]4C[C@@H]2C3)cc1 [EI]	> 4 µg/mL	> 4 µg/mL		
CCc1ccc(-c2cc(N(C)C)c3c(c2O)C(=O)C2=C(O)[C@]4(O)C(=O)C(C(N)=O)=C(O)[C@@H](N(C)C)[C@@H]4C[C@@H]2C3)cc1 [EJ]	> 4 µg/mL	< 4 µg/mL		

Structure (SMILES)	MIC ([1]; MIC class, Table 3)	MIC ([2]; MIC class, Table 3)	MIC [1]	MIC [2]
CN(C)c1cc(-c2ccc(OC(F)(F)F)cc2)c(O)c2c1C[C@H]1C[C@H]3[C@H](N(C)C)C(O)=C(C(N)=O)C(=O)[C@@]3(O)C(O)=C1C2=O [EK]	> 4 µg/mL	< 4 µg/mL		
CN(C)[C@@H]1C(O)=C(C(N)=O)C(=O)[C@@]2(O)C(O)=C3C(=O)c4c(O)ccc(C(=O)Cc5ccccn5)c4C[C@H]3C[C@@H]12 [EL]	< 4 µg/mL	< 4 µg/mL		
CCc1cc(CNC(C)=O)c(O)c2c1C[C@H]1C[C@H]3C(N(C)C)C(O)=C(C(N)=O)C(=O)[C@@]3(O)C(O)=C1C2=O (some centres unmarked) [EM]	> 4 µg/mL	< 4 µg/mL		
CN(C)c1cc(CNC(=O)OCC(C)(C)C)c(O)c2c1C[C@H]1C[C@H]3[C@H](N(C)C)C(O)=C(C(N)=O)C(=O)[C@@]3(O)C(O)=C1C2=O [EN]	> 4 µg/mL	< 4 µg/mL		
C=CCCOC(=O)NCc1cc(N(C)C)c2c(c1O)C(=O)C1=C(O)[C@]3(O)C(=O)C(C(N)=O)=C(O)[C@@H](N(C)C)[C@@H]3C[C@@H]1C2 [EO]	> 4 µg/mL	< 4 µg/mL		
CN(C)c1cc(CNC(=O)Oc2ccccc2)c(O)c2c1C[C@H]1C[C@H]3[C@H](N(C)C)C(O)=C(C(N)=O)C(=O)[C@@]3(O)C(O)=C1C2=O [EP]			> 4 µg/mL	< 4 µg/mL
CC(C)COC(=O)NCc1cc(N(C)C)c2c(c1O)C(=O)C1=C(O)[C@]3(O)C(=O)C(C(N)=O)=C(O)[C@H](N(C)C)[C@@H]3C[C@@H]1C2 [EQ]	> 4 µg/mL	< 4 µg/mL		
CCCCOC(=O)NCc1cc(N(C)C)c2c(c1O)C(=O)C1=C(O)[C@]3(O)C(=O)C(C(N)=O)=C(O)[C@H](N(C)C)[C@@H]3C[C@@H]1C2 [ER]	> 4 µg/mL	< 4 µg/mL		
CCOC(=O)NCc1cc(N(C)C)c2c(c1O)C(=O)C1=C(O)[C@]3(O)C(=O)C(C(N)=O)=C(O)[C@H](N(C)C)[C@@H]3C[C@@H]1C2 [ES]	> 4 µg/mL	< 4 µg/mL		
CO/N=C(/C)c1ccc(O)c2c1C[C@H]1C[C@H]3C(N(C)C)C(O)=C(C(N)=O)C(=O)[C@@]3(O)C(O)=C1C2=O (some centres unmarked) [ET]	< 4 µg/mL	< 4 µg/mL		
CO/N=C(\C)c1ccc(O)c2c1C[C@H]1C[C@H]3[C@H](N(C)C)C(O)=C(C(N)=O)C(=O)[C@@]3(O)C(O)=C1C2=O [EU]	< 4 µg/mL	< 4 µg/mL		
CCCCN(CCCC)Cc1cc(N(C)C)c2c(c1O)C(=O)C1=C(O)[C@]3(O)C(=O)C(C(N)=O)=C(O)C(N(C)C)[C@@H]3C[C@@H]1C2 (some centres unmarked) [EZ]	> 4 µg/mL	< 4 µg/mL		
CN(C)[C@@H]1C(O)=C(C(N)=O)C(=O)[C@@]2(O)C(O)=C3C(=O)c4c(O)cccc4C[C@H]3C[C@@H]12 [E]	< 4 µg/mL	< 4 µg/mL		
CN(C)c1cc(NCc2cccnc2)c(O)c2c1C[C@H]1C[C@H]3C(N(C)C)C(O)=C(C(N)=O)C(=O)[C@@]3(O)C(O)=C1C2=O (some centres unmarked) [FA]	> 4 µg/mL	> 4 µg/mL		
CC(C)CNC(=N)Nc1cc(N(C)C)c2c(c1O)C(=O)C1=C(O)[C@]3(O)C(=O)C(C(N)=O)=C(O)[C@@H](N(C)C)[C@@H]3C[C@@H]1C2 [FB]	> 4 µg/mL	> 4 µg/mL		
COC(=O)CCc1ccc(O)c2c1C[C@H]1C[C@H]3C(N(C)C)C(O)=C(C(N)=O)C(=O)[C@@]3(O)C(O)=C1C2=O (some centres unmarked) [FC]	> 4 µg/mL	< 4 µg/mL		
CN(C)c1cc(CNCC(C)(C)C)c(O)c2c1C[C@H]1C[C@H]3[C@H](N(C)C)C(O)=C(C(N)=O)C(=O)[C@@]3(O)C(O)=C1C2=O [FD]	< 4 µg/mL	< 4 µg/mL		
CCCCCCOC(=O)NCc1cc(N(C)C)c2c(c1O)C(=O)C1=C(O)[C@]3(O)C(=O)C(C(N)=O)=C(O)[C@@H](N(C)C)[C@@H]3C[C@@H]1C2 [FE]	> 4 µg/mL	< 4 µg/mL		
Cc1ccc(OC(=O)NCc2cc(N(C)C)c3c(c2O)C(=O)C2=C(O)[C@]4(O)C(=O)C(C(N)=O)=C(O)[C@@H](N(C)C)[C@@H]4C[C@@H]2C3)cc1 [FG]			> 4 µg/mL	< 4 µg/mL
CN(C)c1cc(CNC(=O)Oc2ccc(Br)cc2)c(O)c2c1C[C@H]1C[C@H]3[C@H](N(C)C)C(O)=C(C(N)=O)C(=O)[C@@]3(O)C(O)=C1C2=O [FH]			> 4 µg/mL	< 4 µg/mL
CN(C)c1cc(CNC(=O)OCC(Cl)(Cl)Cl)c(O)c2c1C[C@H]1C[C@H]3[C@H](N(C)C)C(O)=C(C(N)=O)C(=O)[C@@]3(O)C(O)=C1C2=O [FI]	> 4 µg/mL	< 4 µg/mL		
CN(C)c1cc(CNC(=O)Oc2ccc(F)cc2)c(O)c2c1C[C@H]1C[C@H]3[C@H](N(C)C)C(O)=C(C(N)=O)C(=O)[C@@]3(O)C(O)=C1C2=O [FJ]			> 4 µg/mL	< 4 µg/mL
CC(=O)c1ccc(NC(=O)NCc2cc(N(C)C)c3c(c2O)C(=O)C2=C(O)[C@]4(O)C(=O)C(C(N)=O)=C(O)[C@@H](N(C)C)[C@@H]4C[C@@H]2C3)cc1 [FL]	> 4 µg/mL	< 4 µg/mL		
